Measured values taken from publication PMC12373846, “Hemoglobin as a pseudoperoxidase and drug target for oxidative stress-related diseases” (Signal Transduction and Targeted Therapy, 2025).

Tests used:
[1] = target: T1, purified human Hb (Homo sapiens, UniProt P68871); assay: ITC binding affinity assay; conditions: Hb+KDS12025, without H2O2
T1 construct: purchased MP Biomedical 55914
Method: All ITC experiments were conducted via a MicroCal AutoiTC200 (Malvern Panalytical) at the Korea Basic Science Institute (Ochang, Korea). Binding affinity was measured via the addition of 40 µl of 5 mM KDS12025 (ligand) and 200 µl of 200 μM purified human Hb (protein) (MP Biomedical, 55914) in sodium phosphate buffer (pH 7.2). For each titration experiment, 2 µl of KDS12025 was injected into purified human Hb for 4 s at intervals of 180 s at 25 °C. Overall, 19 injections were performed for each experiment, and the data were analyzed via MicroCal Origin 8.0 software.

[2] = tested on: GiD mice; assay: Novel place recognition test, GiD mice; type: in vivo, mouse; conditions: GiD+KDS12025 0.1mpk ad libitum, Fig. S11e
[3] = tested on: aged C57BL/6J mice; assay: Open field locomotor activity, aging mice; type: in vivo, mouse; conditions: 26 month
[4] = tested on: APP/PS1 mice; assay: Hippocampal slice electrophysiology, APP/PS1 mice; type: in vivo, mouse; conditions: for tonic GABA current, granule cells: Fig. S10k; for sIPSC amplitude: Fig. S10l; for sIPSC frequency: Fig. S10m
Method: The mice were deeply anesthetized with 3% isoflurane followed by decapitation. The brain was quickly excised from the skull and submerged in a chilled cutting solution that contained 234 mM sucrose, 24 mM NaHCO3, 11 mM d(+)-glucose, 10 mM MgSO4, 2.5 mM KCl, […], and 0.5 mM CaCl2. Transverse hippocampi (300 µm thick) were prepared with a vibrating microtome (PRO7N; DSK) and transferred to an artificial cerebrospinal fluid (aCSF) solution that contained 130 mM NaCl, 24 mM NaHCO3, 1.25 mM NaH2PO4, 3.5 mM KCl, 1.5 mM CaCl2, 1.5 mM MgCl2, and 10 mM d(+)-glucose, pH 7.4. The slices were incubated at RT for at least 1 h before recording. All the solutions were saturated with 95% O2 and 5% CO2.
For recording of tonic GABA currents, slices were transferred to a recording chamber that was mounted on an upright Zeiss microscope and continuously perfused with aCSF solution. The slice was viewed with a 60× water immersion objective (numerical aperture = […]) with infrared differential interference contrast optics. […] Cellular morphology was visualized by a CMOS camera (Hamamatsu Photonics, Japan) and Imaging Workbench software (INDEC Biosystems). Whole-cell patch recordings were made from […] DG granule cells of the hippocampus. The holding potential was -70 mV. The pipette resistance was typically 6–8 MΩ, and the pipette was filled with an internal solution that contained (in mM): 135 CsCl; 4 NaCl; 0.5 CaCl2; 10 HEPES; 5 EGTA; 2 Mg-ATP; 0.5 Na2-GTP; 10 QX-314; pH adjusted to 7.2 with CsOH (278 to 285 mOsmol). The baseline current before the tonic current was measured was recorded with CNQX (20 µM) and D-AP5 (50 µM). The frequency and amplitude of spontaneous inhibitory postsynaptic currents before bicuculline (50 µM) administration were detected and measured via Mini Analysis (Synaptosoft, USA).
Dentate granule cell synaptic responses were elicited at a low frequency of 0.1 Hz by stimulating perforant path fibers. The stimulation was delivered over […] at intensities ranging from 0 to 1000 μA using a constant current isolation unit. A tungsten bipolar electrode was positioned in the molecular layer to stimulate the perforant path fibers. Recordings of the evoked excitatory postsynaptic potentials (EPSPs) […], and the pipette was filled with an internal solution that contained the following (in mM): 120 potassium gluconate; 10 KCl; 1 MgCl2; 0.5 EGTA; 40 HEPES; pH adjusted to 7.2 with KOH. The spiking probability was determined by the number of spikes generated per total stimulation. Electrical signals were digitized and sampled at […] with the Digidata 1550B data acquisition system and the Multiclamp 700B Amplifier (Molecular Devices, USA) via pClamp software.

T1 sequence (P68871 2-147 limits assumed): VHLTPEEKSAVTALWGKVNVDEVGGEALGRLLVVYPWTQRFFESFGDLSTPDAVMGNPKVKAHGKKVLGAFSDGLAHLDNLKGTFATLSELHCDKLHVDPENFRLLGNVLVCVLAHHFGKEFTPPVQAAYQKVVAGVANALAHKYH
T1 sequence (P69905 2-142 partner limits assumed): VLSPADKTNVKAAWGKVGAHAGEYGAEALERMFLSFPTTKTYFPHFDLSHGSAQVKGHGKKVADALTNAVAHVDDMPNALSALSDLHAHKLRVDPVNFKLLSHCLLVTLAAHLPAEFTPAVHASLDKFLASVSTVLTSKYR

CNc1ccc(NCCc2ccccc2OC)cc1.Cl [KDS12025, N^1-(2-methoxyphenethyl)-N^4-methylbenzene-1,4-diamine hydrochloride salt]
ΔG (ITC) [1]: -7.53 kcal/mol | ΔH (ITC) [1]: -580 kcal/mol | NPR discrimination index [2]: WT (0.2256±0.0275, n=3), GiD (-0.02438±0.07989, n=3), GiD+KDS12025 (0.1mpk) (0.2255±0.02347, n=4) One-way ANOVA with Tukey's multiple comparisons test, F(2,7) = 9.285, p = 0.01 WT vs. GiD, p = 0.02; WT vs. GiD+KDS12025 (0.1mpk), p > 0.99; GiD vs. GiD+KDS12025 (0.1mpk), p = 0.01 | distance traveled (Fig. 7d) ([3]; 0.1mpk): 3262±203 | locomotor velocity (Fig. 7c) ([3]; 0.1mpk): 5.42±0.34 | distance traveled (Fig. 7d) ([3]; 1mpk): 3600±561 | locomotor velocity (Fig. 7c) ([3]; 1mpk): 6.24±0.6 | tonic GABA current, granule cells ([4]; 3mpk i.p.): 4.160±0.8926 | sIPSC amplitude ([4]; 3mpk i.p.): 36.09±4.601 | sIPSC frequency ([4]; 3mpk i.p.): 1.355±0.2694 | tonic GABA current, granule cells ([4]; 10mpk i.p.): 3.113±0.7279 | sIPSC amplitude ([4]; 10mpk i.p.): 26.02±1.734 | sIPSC frequency ([4]; 10mpk i.p.): 1.177±0.5985 | spike probability across stimulation intensities ([4]; 100–1000 μA, 3 mg/kg/day ad libitum, Fig. 5l left): 0.7455±0.1216
